19 compounds from BindingDB's records for patent US20240335431 (Acerta Pharma, 2024) can be followed below.

The target in the first assay is T1, Menin (Homo sapiens, UniProt O00255).
T1 sequence (O00255 whole entry): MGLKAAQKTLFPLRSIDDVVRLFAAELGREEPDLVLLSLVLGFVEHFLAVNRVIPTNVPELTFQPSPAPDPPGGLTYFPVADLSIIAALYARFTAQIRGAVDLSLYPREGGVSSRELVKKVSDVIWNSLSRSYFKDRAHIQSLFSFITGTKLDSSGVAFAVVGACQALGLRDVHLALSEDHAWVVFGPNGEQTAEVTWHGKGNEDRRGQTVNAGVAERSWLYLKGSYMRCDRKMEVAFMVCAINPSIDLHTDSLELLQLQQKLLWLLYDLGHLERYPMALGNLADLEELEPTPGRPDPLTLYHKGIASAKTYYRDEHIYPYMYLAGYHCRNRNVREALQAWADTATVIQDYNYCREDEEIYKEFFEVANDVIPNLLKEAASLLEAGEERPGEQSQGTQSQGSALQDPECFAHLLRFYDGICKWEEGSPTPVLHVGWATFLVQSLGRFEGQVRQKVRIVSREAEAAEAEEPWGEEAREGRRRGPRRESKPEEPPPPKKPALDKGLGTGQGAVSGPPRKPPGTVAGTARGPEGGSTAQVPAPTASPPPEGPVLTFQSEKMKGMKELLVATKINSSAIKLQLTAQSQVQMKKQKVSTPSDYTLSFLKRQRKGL
Kind of assay: Fluorescence Polarization (FP) Assay. The procedure:
Compounds were tested in a biochemical binding assay using Menin protein at 2 nM (N6his-tev-Menin_4i80, PB-20-1459) and the substrate cRho110-Ahx-MBM1/MBM2 peptide (UbiQ, UbiQ-Q20201030; cRh110-Ahx-[…]-QRVPALLLPPG-NH2) at 1 nM.384 Low volume black plates (Corning #4514) were used. 5 μL/well compound or 3% DMSO was added at 10-fold serial dilutions in DMSO from 10 μM. 5 μL/well cRho110-Ahx-MBM1/MBM2 peptide or binding buffer (50 mM Tris pH 7.5, 50 mM NaCl, 1 mM TCEP, 0.01% BGG, 0.01% Brij-35) was added to all wells. 5 μL/well Menin protein or binding buffer (50 mM Tris pH 7.5, 50 mM NaCl, 1 mM TCEP, 0.01% BGG, 0.01% Brij-35) was added to all wells. Plates were read on an EnVision plate reader (Perkin Elmer) with excitation at 480 nm and emission at 535 nm P+S, and measured every 5 minutes for 180 minutes.
A general note: Fluorescence polarisation rises when a labelled molecule tumbles more slowly, as on binding a larger partner.
What is called IC50 is the point on the concentration scale where inhibition reaches its midpoint. A high value points to weaker potency. `C=C1C[C@@H]2CC[C@H]1[C@@H](C(=O)N1CCC(C(=O)c3cn(-c4ccc(F)cc4C(=O)N(C(C)C)C(C)C)c4cnccc34)CC1)N2` [US20240335431, Example 18] displayed an IC50 of 0.037 µM. That is a double-digit nanomolar value.
The compound `CC(C)c1cnccc1-c1cc(F)ccc1-n1cc(C(=O)C2CN(C(=O)[C@H]3N[C@@H]4CC[C@H]3C4)C2)c2ccncc21` [US20240335431, Example 11] displayed an IC50 of 0.004 µM. This IC50 lies about 9.2-fold lower than the previous one.
For `Cc1c(C(=O)C2CCN(C(=O)[C@H]3NC[C@@H]4C[C@@H]43)CC2)c2ccncc2n1-c1ccc(F)cc1C(=O)N(C(C)C)[C@H](C)C(F)(F)F` (single isomer, unassigned) [US20240335431, Example 57-1], 0.033 µM corresponded to half-maximal inhibition (IC50).
Regarding `CC(C)N(C(=O)c1cc(F)ccc1-n1cc(C(=O)C2CCN(C[C@H]3CC[C@H](NS(C)(=O)=O)CC3)CC2)c2ccncc21)C(C)C` [US20240335431, Example 17], 0.021 µM corresponded to half-maximal inhibition (IC50).
Same read-out and setting: the result for `C[C@@H]1CCC[C@H](C)N1C(=O)c1cc(F)ccc1-n1cc(C(=O)C2CCN(C(=O)[C@H]3N[C@@H]4CC[C@H]3C4)CC2)c2ccncc21` [US20240335431, Example 33] reads 0.037 µM; that for `CCN(C(=O)c1cc(F)ccc1-n1c(C)c(C(=O)[C@@H]2CCN(C(=O)[C@@H]3CCC4(CC4)N3)[C@@H](C)C2)c2ccncc21)C(C)C` (single isomer, unassigned; form 1) [US20240335431, Example 52-1], 0.016 µM.
As for `CC(C)c1ncccc1-c1cc(F)ccc1-n1cc(C(=O)C2CN(C(=O)[C@H]3N[C@@H]4CC[C@H]3C4)C2)c2ccncc21` [US20240335431, Example 10], the IC50 amounted to 0.004 µM. This IC50 lies about 4-fold lower than the previous one.
On the same count and under the same terms, the result for `CC(C)c1ncncc1-c1cc(F)ccc1-n1cc(C(=O)C2CCN(C(=O)[C@H]3N[C@@H]4CC[C@H]3C4)CC2)c2ccncc21` [US20240335431, Example 37] reads 0.009 µM; that for `CCN(C(=O)c1cc(F)ccc1-n1c(C)c(C(=O)[C@@H]2CCN(C(=O)[C@@H]3CCC4(CC4)N3)[C@@H](C)C2)c2ccncc21)C(C)C` (single isomer, unassigned; form 2) [US20240335431, Example 52-2], 0.018 µM; that for `C[C@@H]1COC[C@H](C)N1C(=O)c1cc(F)ccc1-n1cc(C(=O)C2CCN(C(=O)[C@H]3N[C@@H]4CC[C@H]3C4)CC2)c2ccncc21` [US20240335431, Example 35], 0.097 µM.
As to `CC(C)N(C(=O)c1cc(F)ccc1-n1cc(C(=O)C2CCN(C(=O)[C@@H]3CCC4(CC4)N3)CC2)c2ccncc21)C(C)C` [US20240335431, Example 24], half-maximal inhibition (IC50) required 0.019 µM.
Consider `CC(C)N(C(=O)c1cc(F)ccc1-n1cc(C(=O)C2CN(C(=O)[C@H]3NC4CCC3CC4)C2)c2ccncc21)C(C)C` [US20240335431, Example 6], for which the IC50 came out at 0.042 µM.
Still for that read-out and setting: the result for `CC(C)N(C(=O)c1cc(F)ccc1-n1cc(C(=O)[C@H]2CCN(C[C@H]3CC[C@H](NS(C)(=O)=O)CC3)C2)c2ccncc21)C(C)C` [US20240335431, Example 1] reads 0.029 µM; that for `Cc1c(C(=O)[C@@H]2CCN(C(=O)[C@@H]3CC[C@@H](C)N3)[C@@H](C)C2)c2ccncc2n1-c1ccc(F)cc1C(=O)N(C(C)C)C(C)C` [US20240335431, Example 64], 0.084 µM.
`Cc1c(C(=O)C2CCN(C(=O)[C@@H]3CCC4(CC4)N3)CC2)c2ccncc2n1-c1ccc(F)cc1C(=O)N1[C@H](C)COC[C@H]1C` (single isomer, unassigned) [US20240335431, Example 58-1] displayed an IC50 of 0.351 µM.
Consider `CC(C)N(C(=O)c1cc(F)ccc1-n1cc(C(=O)[C@@H]2CCN(C(=O)[C@H]3N[C@@H]4CC[C@H]3C4)C2)c2ccncc21)C(C)C` [US20240335431, Example 3], for which the IC50 turned out to be 0.025 µM. Against the preceding compound, the IC50 is about 14-fold lower.
On the same count and under the same terms, in the case of `Cc1c(C(=O)C2CCN(C(=O)[C@H]3NC[C@@H]4C[C@@H]43)CC2)c2ccncc2n1-c1ccc(F)cc1C(=O)N(CC(F)(F)F)C(C)C` (single isomer, unassigned) [US20240335431, Example 51-1] it was 0.778 µM; in that of `CCN(C(=O)c1cc(F)ccc1-n1c(C)c(C(=O)C2CCN(C(=O)[C@H]3NC[C@@H]4C[C@@H]43)CC2)c2ccncc21)C(C)C` (single isomer, unassigned) [US20240335431, Example 48-1], 1.97 µM; in that of `CC(C)N(C(=O)c1cc(F)ccc1-n1cc(C(=O)C2CCN(C(=O)[C@H]3NC[C@@H]4CCC[C@@H]43)CC2)c2ccncc21)C(C)C` [US20240335431, Example 21], 0.016 µM.

The next assay deals with T2, Muscarinic acetylcholine receptor M2 (Homo sapiens, UniProt P08172).
T2 sequence (P08172 whole entry): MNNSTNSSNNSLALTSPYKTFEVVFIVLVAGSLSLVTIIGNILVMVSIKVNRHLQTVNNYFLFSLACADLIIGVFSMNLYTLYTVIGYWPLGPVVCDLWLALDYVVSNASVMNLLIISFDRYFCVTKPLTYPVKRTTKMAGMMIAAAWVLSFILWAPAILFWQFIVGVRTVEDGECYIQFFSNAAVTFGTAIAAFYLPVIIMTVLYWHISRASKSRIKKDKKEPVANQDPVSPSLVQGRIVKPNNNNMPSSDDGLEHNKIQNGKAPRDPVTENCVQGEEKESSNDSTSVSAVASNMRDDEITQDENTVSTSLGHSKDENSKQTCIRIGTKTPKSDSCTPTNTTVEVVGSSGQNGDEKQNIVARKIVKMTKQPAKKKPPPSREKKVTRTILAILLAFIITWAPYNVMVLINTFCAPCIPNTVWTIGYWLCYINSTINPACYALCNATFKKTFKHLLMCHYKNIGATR
Kind of assay: Muscarinic M2 Receptor Binding Assay. The procedure:
Cell membrane homogenates (60 μg protein) were incubated for 60 minutes at 22° C. with 2 nM [3H]AF-DX 384 in the absence or presence of the test compound in a buffer containing 50 mM Tris-HCl (pH 7.4), 120 mM NaCl, 5 mM KCl, 5 mM MgCl2, and 1 mM EDTA. Nonspecific binding was determined in the presence of 1 μM atropine. Following incubation, the samples were filtered rapidly under vacuum through glass fiber filters (GF/B, Packard) presoaked with 0.3% PEI and rinsed several times with ice-cold 50 mM Tris-HCl using a 96-sample cell harvester (Unifilter, Packard). The filters were dried then counted for radioactivity in a scintillation counter (Topcount, Packard) using a scintillation cocktail (Microscint 0, Packard). The results were expressed as a percent inhibition of the control radioligand specific binding, from which the Ki was calculated. Data were analyzed using software developed at Cerep (Hill software) and validated by comparison with data generated by the commercial software SigmaPlot 4.0 for Windows ( 1997 by SPSS Inc.).
What is called Ki is a measure of affinity in units of concentration, obtained from inhibition or displacement. On to `CCN(C(=O)c1cc(F)ccc1-n1c(C)c(C(=O)C2CCN(C(=O)[C@H]3NC[C@@H]4C[C@@H]43)CC2)c2ccncc21)C(C)C` (single isomer, unassigned) [US20240335431, Example 48-1], for which the Ki amounted to 6.7 µM.
